Measurements from patent publication US20210393811A1, “Imaging Agents and Methods of Use” (Texas Heart Institute, priority 2018, published 2021).

Experiments:
[1] = biological target: T1, integrin α4β1 (Homo sapiens, UniProt P05556+P13612); assay: K562(α4β1) cell adhesion to VCAM-1; assay type: cell-based; design: expressed in transfected cells; host or cells: K562(α4β1) cells
Description: A, B. Structure of THI520 and THI528. C. THI520 and THI0528 inhibition of α4β1-K562 cell adhesion to VCAM-1 (Mn++).
(§1) The core of this structure is different than that of TBC3486 (FIG. 3A). […] THI528 was tested for binding to integrin α4β1by flow cytometry (FIG. 4). Jurkat cells that express the integrin α4β1 (Jurkat(α4β1)), or mutagenized Jurkat cells that no longer express the integrin α4β1 (Jurkat(α4^null)), where incubated with increasing concentrations of THI528.

[2] = biological target: T1, integrin α4β1; assay: K562(α4β1) cell adhesion to CS-1; assay type: cell-based; design: expressed in transfected cells; host or cells: K562(α4β1) cells
Excerpt: A. Structure of TBC3486. B. Structure of THI0510 (TBC3486 modified with conjugatable linker [TBC3486-conj] for functionalization with reactive dye and/or chelator reagents). C. TBC3486 and THI0510 inhibition of α4β1-K562 cell adhesion to the CS-1 sequence from fibronectin.
A. Conjugated THI375 analogue. B. THI375 analogue conjugated to the fluorescent dye sulfo-Cy5 (THI526). C. Activity of THI527, THI526, and TBC-4746 in K562-α4β1/CS-1 adhesion assays performed in Mn++.
First attempts to generate an integrin α4β1 imaging agent took advantage of the TBC3486 core scaffold. Modifications to the core scaffold were generated to determine an appropriate site to which imaging conjugates could be attached (FIG. 1). […] Next, imaging agents were attached to this conjugation site and their activities tested in cell adhesion assays.

[3] = biological target: T2, murine integrin α4β1 (Mus musculus, UniProt P09055+Q00651); assay: 70Z3 cell adhesion to VCAM-1; assay type: cell-based
T2 construct: endogenous in cells; host or cells: 70Z3 cells
T2 sequence (Q00651 41-1039): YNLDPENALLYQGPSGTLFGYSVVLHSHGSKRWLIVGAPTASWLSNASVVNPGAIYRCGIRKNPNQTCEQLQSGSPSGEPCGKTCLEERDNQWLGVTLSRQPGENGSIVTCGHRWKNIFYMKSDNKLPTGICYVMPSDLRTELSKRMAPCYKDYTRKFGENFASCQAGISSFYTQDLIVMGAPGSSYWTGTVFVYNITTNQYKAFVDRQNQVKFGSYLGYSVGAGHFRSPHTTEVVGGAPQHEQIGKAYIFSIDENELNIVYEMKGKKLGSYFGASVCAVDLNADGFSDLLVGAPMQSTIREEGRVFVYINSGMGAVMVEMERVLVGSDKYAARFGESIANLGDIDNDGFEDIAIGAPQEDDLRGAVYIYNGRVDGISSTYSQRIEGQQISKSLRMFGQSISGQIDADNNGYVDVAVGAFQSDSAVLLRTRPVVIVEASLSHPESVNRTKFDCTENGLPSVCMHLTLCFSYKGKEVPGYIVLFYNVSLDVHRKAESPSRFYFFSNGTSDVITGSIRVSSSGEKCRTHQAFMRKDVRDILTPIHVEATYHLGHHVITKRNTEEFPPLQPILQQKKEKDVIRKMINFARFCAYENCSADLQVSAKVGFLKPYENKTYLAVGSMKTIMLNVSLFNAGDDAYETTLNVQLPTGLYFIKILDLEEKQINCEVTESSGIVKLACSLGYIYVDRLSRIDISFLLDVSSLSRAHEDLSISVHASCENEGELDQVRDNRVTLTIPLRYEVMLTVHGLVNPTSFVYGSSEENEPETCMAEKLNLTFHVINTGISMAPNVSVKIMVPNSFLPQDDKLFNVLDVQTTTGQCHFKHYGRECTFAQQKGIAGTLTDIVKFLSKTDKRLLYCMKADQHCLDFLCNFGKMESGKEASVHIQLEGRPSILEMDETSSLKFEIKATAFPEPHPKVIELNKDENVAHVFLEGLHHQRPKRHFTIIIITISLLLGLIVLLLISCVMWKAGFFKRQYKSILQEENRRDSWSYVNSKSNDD
T2 sequence (P09055 21-798): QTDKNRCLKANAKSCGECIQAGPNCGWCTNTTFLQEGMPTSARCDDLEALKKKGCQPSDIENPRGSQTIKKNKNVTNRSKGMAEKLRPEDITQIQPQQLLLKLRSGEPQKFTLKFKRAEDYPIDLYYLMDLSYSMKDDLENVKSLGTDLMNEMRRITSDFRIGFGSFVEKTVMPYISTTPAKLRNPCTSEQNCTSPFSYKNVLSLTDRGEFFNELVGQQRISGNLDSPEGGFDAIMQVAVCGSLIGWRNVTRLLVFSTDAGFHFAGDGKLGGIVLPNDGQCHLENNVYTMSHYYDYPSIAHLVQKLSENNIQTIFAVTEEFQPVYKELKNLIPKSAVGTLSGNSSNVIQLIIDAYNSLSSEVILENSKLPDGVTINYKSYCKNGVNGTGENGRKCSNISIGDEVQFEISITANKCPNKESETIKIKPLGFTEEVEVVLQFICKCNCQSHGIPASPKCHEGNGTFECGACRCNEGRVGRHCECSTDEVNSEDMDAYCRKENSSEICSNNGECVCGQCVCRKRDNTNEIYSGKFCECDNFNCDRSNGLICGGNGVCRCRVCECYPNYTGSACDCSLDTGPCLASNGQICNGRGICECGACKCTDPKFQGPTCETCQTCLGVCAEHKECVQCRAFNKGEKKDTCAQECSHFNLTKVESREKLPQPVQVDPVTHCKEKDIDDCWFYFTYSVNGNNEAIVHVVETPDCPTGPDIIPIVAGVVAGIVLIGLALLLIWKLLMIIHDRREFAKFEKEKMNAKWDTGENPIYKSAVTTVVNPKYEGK

[4] = biological target: T1, integrin α4β1; assay: Flow cytometry binding to K562(α4β1) cells; design: expressed in transfected cells; host or cells: K562(α4β1) cells; settings: cations Mn
[5] = biological target: T2, murine integrin α4β1; assay: Flow cytometry binding to 70Z3 cells; settings: 70Z3, Flow Cytometry, cations Mn
[6] = biological target: T1, integrin α4β1; assay: Flow cytometry binding to Jurkat cells; settings: for IC50: Jurkat, Flow Cytometry, Human
Description: B. Individual histograms of 10 nM dose of THI528±EDTA.
as §1

[7] = K562(α4β1), substrate VCAM-1, cations Ca/Mg, Human (low affinity α4β1 adhesion assay), read-out: Activity (IC50) (converted)
[8] = K562(α4β1), substrate CS-1, cations Mn, Human
[9] = 70Z3, substrate VCAM-1, cations Ca/Mg
[10] = 70Z3, substrate VCAM-1, cations Mn

T1 sequence (P13612 34-1032): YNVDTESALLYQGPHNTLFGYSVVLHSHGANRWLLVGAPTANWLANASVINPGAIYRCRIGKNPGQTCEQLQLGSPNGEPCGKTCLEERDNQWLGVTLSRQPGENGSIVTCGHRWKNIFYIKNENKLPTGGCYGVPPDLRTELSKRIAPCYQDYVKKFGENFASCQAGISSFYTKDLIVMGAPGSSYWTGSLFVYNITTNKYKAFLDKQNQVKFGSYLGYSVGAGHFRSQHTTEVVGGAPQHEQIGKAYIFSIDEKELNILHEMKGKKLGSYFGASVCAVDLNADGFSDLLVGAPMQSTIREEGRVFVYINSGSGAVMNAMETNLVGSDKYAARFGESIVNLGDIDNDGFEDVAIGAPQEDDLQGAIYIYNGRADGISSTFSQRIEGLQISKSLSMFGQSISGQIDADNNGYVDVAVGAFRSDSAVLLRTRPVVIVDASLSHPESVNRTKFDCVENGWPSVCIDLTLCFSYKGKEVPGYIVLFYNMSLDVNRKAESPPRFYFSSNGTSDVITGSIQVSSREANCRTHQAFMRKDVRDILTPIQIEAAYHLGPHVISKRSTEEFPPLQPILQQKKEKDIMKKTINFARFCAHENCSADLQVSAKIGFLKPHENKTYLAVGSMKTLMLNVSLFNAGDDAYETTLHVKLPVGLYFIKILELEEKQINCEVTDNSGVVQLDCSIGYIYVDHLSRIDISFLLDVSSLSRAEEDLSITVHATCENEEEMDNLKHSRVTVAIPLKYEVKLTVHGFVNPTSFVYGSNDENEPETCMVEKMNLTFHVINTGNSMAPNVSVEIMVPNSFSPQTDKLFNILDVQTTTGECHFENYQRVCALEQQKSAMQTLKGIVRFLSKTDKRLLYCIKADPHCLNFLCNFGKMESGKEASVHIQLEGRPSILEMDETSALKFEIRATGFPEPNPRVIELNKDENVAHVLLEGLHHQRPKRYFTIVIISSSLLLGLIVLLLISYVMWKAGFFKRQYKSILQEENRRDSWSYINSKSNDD
T1 sequence (P05556 21-798): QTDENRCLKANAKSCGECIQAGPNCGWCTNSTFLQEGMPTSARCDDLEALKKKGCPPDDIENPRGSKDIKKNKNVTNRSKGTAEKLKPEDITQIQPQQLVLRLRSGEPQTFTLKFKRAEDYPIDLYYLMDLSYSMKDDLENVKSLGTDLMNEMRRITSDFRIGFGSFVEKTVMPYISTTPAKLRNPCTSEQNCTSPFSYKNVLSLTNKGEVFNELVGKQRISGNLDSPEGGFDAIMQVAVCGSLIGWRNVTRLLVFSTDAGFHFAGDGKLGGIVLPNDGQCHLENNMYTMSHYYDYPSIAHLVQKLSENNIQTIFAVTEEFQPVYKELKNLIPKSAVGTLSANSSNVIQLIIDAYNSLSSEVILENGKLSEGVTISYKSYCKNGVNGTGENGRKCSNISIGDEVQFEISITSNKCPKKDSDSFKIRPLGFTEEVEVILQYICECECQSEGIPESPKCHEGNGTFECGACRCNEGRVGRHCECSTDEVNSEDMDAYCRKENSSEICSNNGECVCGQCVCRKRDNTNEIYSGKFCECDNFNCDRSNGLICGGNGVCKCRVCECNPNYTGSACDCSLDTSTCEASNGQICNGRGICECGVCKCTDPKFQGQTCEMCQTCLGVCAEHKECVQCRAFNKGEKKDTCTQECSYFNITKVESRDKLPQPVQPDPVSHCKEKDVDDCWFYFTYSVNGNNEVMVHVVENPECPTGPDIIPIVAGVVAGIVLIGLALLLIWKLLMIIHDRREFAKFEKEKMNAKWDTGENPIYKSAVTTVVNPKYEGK

Compound | IC50 [2, 8] [nM] | IC50 ([6]; cations Mn) [nM] | IC50 [1, 7] [nM] | IC50 [3, 9] [nM] | IC50 [3, 10] [nM] | other results
CCOc1cccc([C@H](CC(=O)[O-])NC(=O)Nc2c([O-])c(C)cn(Cc3c(Cl)cccc3OCC)c2=O)c1.[Na+].[Na+] [THI520] | 0.11 ± 0.04 |  | 6.3 ± 3.1 | 129 | 0.75 | activity in high affinity assays ([2]; high affinity α4β1 adhesion assays): pM activity
C[N+]1=C(/C=C/C=C/C=C2/N(CCCCCC(=O)NCCCCCC(=O)O)c3ccc(S(=O)(=O)[O-])cc3C2(C)C)C(C)(C)c2cc(S(=O)(=O)[O-])ccc21.[Na+] [THI529] |  |  |  |  |  | Activity (IC50) ([2]; K562(α4β1), substrate CS-1, cations Mn, Human, result in words): No Activity (n = 3) K562(α4β1)

The next lines start with results.

IC50 [2, 8] [nM] | IC50 ([6]; cations Mn) [nM] | Compound | IC50 [1, 7] [nM] | IC50 [3, 9] [nM] | IC50 [3, 10] [nM] | other results
2.2 ± 0.53 |  | Cc1ccc([C@H](CC(=O)O)NC(=O)Nc2c(O)c(C)cn(Cc3ccccc3Cl)c2=O)cc1 [THI375] | 810 | 10300 | 127 | IC50 ([1]; K562(α4β1), substrate VCAM-1, cations Mn, Human, read-out: Activity (IC50) (converted)): 1.4 nM
1700 ± 1000 |  | C[N+]1=C(/C=C/C=C/C=C2/N(CCCCCC(=O)NCCCCCC(=O)NCCCC[C@@H](NC(=O)N[C@H](CC(=O)O)c3ccc4c(c3)OCO4)C(=O)N(Cc3cccs3)Cc3cccs3)c3ccc(S(=O)(=O)[O-])cc3C2(C)C)C(C)(C)c2cc(S(=O)(=O)O)ccc21 [THI517] |  |  |  | IC50 [4]: > 1000 nM
 | 0.069 | CCOc1cccc([C@H](CC(=O)O)NC(=O)Nc2c(OCCCCCCNC(=O)CCCCC[N+]3=C(/C=C/C=C/C=C4/N(C)c5ccc(S(=O)(=O)[O-])cc5C4(C)C)C(C)(C)c4cc(S(=O)(=O)[O-])ccc43)c(C)cn(Cc3c(Cl)cccc3OCC)c2=O)c1.[Na+] [THI528] |  |  |  | antagonist activity after conjugation to sulfo-Cy5 ([1]; compared with THI520): no apparent loss in antagonist activity; IC50 ([1]; n=3, same value as Table 2 K562(α4β1)/VCAM-1/Mn, read-out: a4b1 IC50): 0.519 ± 0.097 nM; IC50 [5]: 0.06 nM; Kd ([6]; Jurkat(α4β1) cells, flow cytometry, n=1, read-out: apparent Kd): 0.26 nM; IC50 ([6]; cations Ca/Mg): 0.202 nM; binding to Jurkat cells expressing α4β1 ([6]; flow cytometry, increasing concentrations): Specific and saturable binding; binding in presence of EDTA or to Jurkat cells lacking α4β1 ([6]; flow cytometry, EDTA or Jurkat(α4β1) cells as printed): no detectable binding
 | 0.078 ± 0.037 | CCOc1cccc([C@H](CC(=O)O)NC(=O)Nc2c(OCCCCCCNC(=O)C(CNC(=O)C(CNC(=O)CCCCC[N+]3=C(/C=C/C=C/C=C4/N(C)c5ccc(S(=O)(=O)[O-])cc5C4(C)C)C(C)(C)c4cc(S(=O)(=O)O)ccc43)S(=O)(=O)O)S(=O)(=O)O)c(C)cn(Cc3c(Cl)cccc3OCC)c2=O)c1 (stereo partly shown) [THI540] |  |  |  | 
